Data as given in the supplement of paper PMC10307832.

Assays:
Assay in all cases: relative viability (nuclei count vs DMSO), 5 days (fraction); higher = more cells survive
Zebularine + Trametinib = compound: O=c1ncccn1[C@@H]1O[C@H](CO)[C@@H](O)[C@H]1O [Zebularine] + CC(=O)Nc1cccc(-n2c(=O)n(C3CC3)c(=O)c3c(Nc4ccc(I)cc4F)n(C)c(=O)c(C)c32)c1 [Trametinib] (partner 0.02 µM)
In short: (§1)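 Relative viability was taken as the ratio of nuclei in treated wells to nuclei in vehicle wells. Lung cancer cell lines in 1536-well plates received compounds by pin tool one day after seeding, either one drug alone or a fixed anchor-drug dose plus five library-drug doses (not always all listed) in √10 steps. Nuclei were counted on 4× images after 5 days of treatment, and values are medians of duplicate plates.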

BI-D1870 + Foretinib = compound: CC(C)CCN1c2nc(Nc3cc(F)c(O)c(F)c3)ncc2N(C)C(=O)C1C [BI-D1870] + COc1cc2c(Oc3ccc(NC(=O)C4(C(=O)Nc5ccc(F)cc5)CC4)cc3F)ccnc2cc1OCCCN1CCOCC1 [Foretinib] (partner 0.25 µM)
In short: as §1

BI-D1870 + Vorinostat = compound: CC(C)CCN1c2nc(Nc3cc(F)c(O)c(F)c3)ncc2N(C)C(=O)C1C [BI-D1870] + O=C(CCCCCCC(=O)Nc1ccccc1)NO [Vorinostat] (partner 1 µM)
In short: as §1

Zebularine + Navitoclax = compound: O=c1ncccn1[C@@H]1O[C@H](CO)[C@@H](O)[C@H]1O [Zebularine] + CC1(C)CCC(c2ccc(Cl)cc2)=C(CN2CCN(c3ccc(C(=O)NS(=O)(=O)c4ccc(N[C@H](CCN5CCOCC5)CSc5ccccc5)c(S(=O)(=O)C(F)(F)F)c4)cc3)CC2)C1 [Navitoclax] (partner 0.5 µM)
In short: as §1

Row | Cell Line | relative viability (Zebularine + Trametinib; first compound 1 µM) | relative viability (Zebularine + Trametinib; first compound 3.162 µM) | relative viability (Zebularine + Trametinib; first compound 10 µM) | relative viability (Zebularine + Trametinib; first compound 31.62 µM) | relative viability (Zebularine + Trametinib; first compound 100 µM) | relative viability (BI-D1870 + Foretinib; first compound 0.04 µM) | relative viability (BI-D1870 + Foretinib; first compound 0.1265 µM) | relative viability (BI-D1870 + Foretinib; first compound 0.4 µM) | relative viability (BI-D1870 + Foretinib; first compound 1.265 µM) | relative viability (BI-D1870 + Foretinib; first compound 4 µM) | relative viability (BI-D1870 + Vorinostat; first compound 0.04 µM) | relative viability (BI-D1870 + Vorinostat; first compound 0.1265 µM) | relative viability (BI-D1870 + Vorinostat; first compound 0.4 µM) | relative viability (BI-D1870 + Vorinostat; first compound 1.265 µM) | relative viability (BI-D1870 + Vorinostat; first compound 4 µM) | relative viability (Zebularine + Navitoclax; first compound 1 µM) | relative viability (Zebularine + Navitoclax; first compound 3.162 µM) | relative viability (Zebularine + Navitoclax; first compound 10 µM) | relative viability (Zebularine + Navitoclax; first compound 31.62 µM) | relative viability (Zebularine + Navitoclax; first compound 100 µM)
1 | NCI-H2087 | 0.195 | 0.166 | 0.204 | 0.206 | 0.142 | 1.16 | 1.23 | 1.27 | 1.12 | 0.982 | 0.634 | 0.595 | 0.96 | 0.92 | 0.849 | 1.16 | 0.885 | 0.488 | 0.767 | 0.37
2 | NCI-H2126 | 0.532 | 0.561 | 0.476 | 0.557 | 0.437 | 1.23 | 1.14 | 1.22 | 1.15 | 1.06 | 0.802 | 0.718 | 0.719 | 0.735 | 0.578 | 0.862 | 0.813 | 0.766 | 0.735 | 0.509
3 | NCI-H2170 | 0.931 | 0.919 | 0.677 | 0.874 | 0.441 | 1.06 | 0.971 | 1.05 | 0.934 | 0.957 | 1.01 | 0.786 | 0.786 | 0.783 | 0.675 | 0.694 | 0.642 | 0.453 | 0.574 | 0.432
4 | NCI-H2228 | 0.612 | 0.251 |  | 0.417 | 0.252 | 1.03 | 0.806 | 0.941 | 0.821 | 0.647 | 0.889 | 0.512 | 0.824 | 0.959 | 0.32 | 1.46 | 0.843 | 0.655 | 0.722 | 0.191
5 | NCI-H2347 | 0.294 | 0.299 | 0.237 | 0.312 | 0.235 | 0.977 | 0.993 | 0.903 | 0.723 | 0.863 | 0.524 | 0.677 | 0.597 | 0.776 | 0.545 | 0.836 | 0.81 | 0.563 | 0.475 | 0.369
6 | NCI-H2405 | 0.602 | 0.602 | 0.516 | 0.683 | 0.532 | 1.09 | 0.994 | 1.01 | 1.05 | 0.859 | 1.04 | 1.03 | 1 | 0.974 | 0.9 | 0.913 | 0.831 | 0.798 | 0.833 | 0.61
7 | NCI-H3122 | 0.268 | 0.294 | 0.22 | 0.283 | 0.251 | 0.898 | 0.942 | 0.96 | 0.974 | 0.889 | 1.05 | 0.633 | 0.858 | 1.21 | 0.998 | 1.06 | 1.02 | 0.943 | 1.08 | 1.02
8 | PC-3 [JPC-3] | 0.779 | 0.696 | 0.622 | 0.71 | 0.539 | 0.999 | 1.01 | 1.02 | 1.06 | 0.961 | 0.817 | 0.795 | 0.81 | 0.625 | 0.394 | 0.751 | 0.749 | 0.603 | 0.748 | 0.583
9 | PC-14 | 0.7 | 0.517 | 0.197 | 0.117 | 0.101 | 0.936 | 0.865 | 0.908 | 0.952 | 0.945 | 0.825 | 0.625 | 0.58 | 0.699 | 0.569 | 1.07 | 1.06 | 0.346 | 0.113 | 0.129
10 | RERF-LC-KJ | 1.02 | 0.89 | 0.719 | 0.87 | 0.916 | 0.885 | 0.842 | 0.878 | 0.846 | 0.909 | 0.66 | 0.633 | 0.669 | 0.642 | 0.47 |  | 1.08 | 0.507 | 0.939 | 0.968
11 | SK-LU-1 | 0.52 | 0.485 | 0.412 | 0.446 | 0.371 | 0.86 | 0.676 | 0.739 | 0.798 | 0.525 | 0.823 | 0.615 | 0.71 | 0.625 | 0.35 | 0.965 | 0.868 | 0.435 | 0.61 | 0.306
12 | SK-MES-1 | 0.558 | 0.581 | 0.491 | 0.503 | 0.305 | 0.871 | 0.77 | 0.706 | 0.868 | 0.769 | 1.16 | 0.905 | 0.933 | 0.949 | 0.691 | 1.41 | 1.32 | 0.781 | 0.526 | 0.33
13 | SW 1573 | 0.577 | 0.645 |  | 0.545 | 0.61 | 0.958 | 0.783 | 0.853 | 0.937 | 0.881 | 1.07 | 0.6 | 0.99 | 0.619 | 0.448 | 1.04 | 0.735 | 0.6 | 0.947 | 0.529
